Measured values from PMC6367362, “MD001, a Novel Peroxisome Proliferator-activated Receptor α/γ Agonist, Improves Glucose and Lipid Metabolism” (Scientific Reports, 2019).

Target: T1, human HA-PPARγ (Homo sapiens, UniProt P37231)
T1 construct: expressed in transfected cells; host or cells: HEK293
T1 sequence (P37231 1-505): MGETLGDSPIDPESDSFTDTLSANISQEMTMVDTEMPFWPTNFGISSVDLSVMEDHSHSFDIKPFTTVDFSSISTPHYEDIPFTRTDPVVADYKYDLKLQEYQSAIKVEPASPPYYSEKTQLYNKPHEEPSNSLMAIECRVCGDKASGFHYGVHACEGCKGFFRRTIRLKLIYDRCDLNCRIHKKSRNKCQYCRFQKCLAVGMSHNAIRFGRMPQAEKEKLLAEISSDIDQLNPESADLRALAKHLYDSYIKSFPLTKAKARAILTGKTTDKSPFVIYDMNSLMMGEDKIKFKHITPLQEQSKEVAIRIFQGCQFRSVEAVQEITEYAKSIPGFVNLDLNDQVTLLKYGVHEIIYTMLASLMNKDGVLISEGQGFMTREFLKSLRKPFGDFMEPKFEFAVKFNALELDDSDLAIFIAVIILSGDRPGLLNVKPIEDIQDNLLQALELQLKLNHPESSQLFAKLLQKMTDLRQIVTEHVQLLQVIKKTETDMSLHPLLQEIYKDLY
Assay: PPRE luciferase activity assay in HEK293 cells transfected with HA-PPARγ
Type: cell-based
Set-up: transcriptional activity of PPARγ: dose or concentration left out as unconfirmed
Settings: HEK293, PPRE-pk-Luc
Method: Figure 2 MD001 induces the expression of target genes through PPARα and PPARγ activation. HEK293 cells were transiently co-transfected with human HA-PPARα (A) and HA-PPARγ (B) expression vectors along with the reporter plasmid (PPRE-pk-Luc) or control reporter plasmid (pk-Luc) with Renilla vector for 24 h. Cells were treated with MD001 (10 μM), rosiglitazone (rosi) (10 μM) or WY14643 (WY) (10 μM) for 24 h. Luciferase activity was normalised to Renilla luciferase activity as described in the Methods section. **, vs. vehicle. (C) HepG2 cells were treated with MD001 (10 μM) for 24 h, and total RNA was isolated and synthesised into cDNA. Relative expression was quantitated using qRT-PCR. **, vs. vehicle. (D,E) HepG2 cells were transfected with control siRNA, PPARα siRNA (D), or PPARγ siRNA (E) for 48 h and treated with vehicle, WY14643 (10 μM), rosiglitazone (10 μM) or MD001 (10 μM) for 24 h. Subsequently, cells were harvested for total RNA isolation. Relative expression of target genes was quantitated using qRT-PCR. ^#, vs. control siRNA; ^‡, vs. control siRNA/vehicle; ^§, vs. control siRNA/WY; * and **, vs. control siRNA/MD001. Data represent the mean ± SD of three independent experiments. *P < 0.05, **P < 0.01, ^#P < 0.01, ^‡P < 0.01, and ^§P < 0.01.
For transient transfection, cells were transfected with plasmid DNA constructs by polyethylenimine (PEI, Polysciences, Inc., Warrington, PA, USA) according to the manufacturer’s instructions. Transcription activity assays of PPARα and PPARγ in HEK293 cells were performed by co-transfection of HA-PPARα, HA-PPARγ, and peroxisome proliferator-response element (PPRE) reporter plasmid (PPRE-pk-Luc) or control reporter plasmid (pk-Luc) with Renilla vector for 24 h. […] Luciferase activity was measured with the Dual-Luciferase Reporter Assay System (Promega, Madison, WI, USA) and quantified using GloMax (Promega, USA) according to the manufacturer’s protocol. […]
Luciferase activity was measured as described in the Methods section. […]

SMILES: Cc1c(O)cc(O)c2c(-c3ccccc3)c(C(=O)/C=C/c3ccccc3)c(=O)oc12 [MD001]
- transcription via PPARγ activation (luciferase activity) (10 μM, 24 h, vs. vehicle): significantly increased
- transcriptional activity of PPARγ (24 h (Supplementary Fig. S2)): promoted simultaneous transcriptional activity
